# Laboratory results: US10543221B2, “Beta-lactamase inhibitors, formulations, and uses thereof” (priority 2016, dated 2020)
# Columns and labels:
# His-tag SHV-2 = His-tag SHV-2 (Escherichia coli, UniProt P0A9Z7)
# Procedure: Steady-State Kinetic Analysis. Steady-state kinetic parameters were determined by using a Biotek Cytation Multi-Mode Reader. For KPC-2, each assay was performed in 100 mM Tris-HCl pH 7.0, 0.01% Triton X-100 at 37 C. Vmax and Km were determined from initial steady-state velocities from nitrocefin read at a wavelength of 486 nm. The kinetic parameters were obtained using the non-linear portion of the data to the Henri-Michaelis (equation 1) using SigmaPlot 12.5. […] Compounds according to Formulas 5-10 were purchased from commercial sources. The last compound was de novo synthesized.
# KPC-2 beta-lactamase = KPC-2 beta-lactamase (Klebsiella pneumoniae, UniProt Q9F663); assay: Steady-state kinetic analysis, nitrocefin hydrolysis, KPC-2; format: biochemical; conditions: nitrocefin substrate
# KPC-2 beta-lactamase, sequence (Q9F663 whole entry, looked up): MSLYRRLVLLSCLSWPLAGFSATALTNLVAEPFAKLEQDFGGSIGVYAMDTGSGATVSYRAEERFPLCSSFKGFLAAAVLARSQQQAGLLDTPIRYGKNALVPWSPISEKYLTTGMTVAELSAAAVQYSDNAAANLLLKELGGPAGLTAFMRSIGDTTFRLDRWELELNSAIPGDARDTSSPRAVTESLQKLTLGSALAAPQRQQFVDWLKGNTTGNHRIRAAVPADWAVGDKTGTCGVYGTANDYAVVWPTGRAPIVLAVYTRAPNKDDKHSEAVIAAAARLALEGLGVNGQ
# Procedure: Fractions were analyzed by SDS-PAGE.
# Steady-State Kinetic Analysis. Steady-state kinetic parameters were determined by using a Biotek Cytation Multi-Mode Reader. For KPC-2, each assay was performed in 100 mM Tris-HCl pH 7.0, 0.01% Triton X-100 at 37 C. […] Compounds according to Formulas 5-10 were purchased from commercial sources. The last compound was de novo synthesized.
# [1] = biological target: NDM-1 metallo-beta-lactamase (Klebsiella pneumoniae, UniProt C7C422); assay: Steady-state kinetic analysis, nitrocefin hydrolysis, NDM-1; format: biochemical; conditions: second NDM-1 column of Table 1
# NDM-1 metallo-beta-lactamase, sequence (C7C422 whole entry, looked up): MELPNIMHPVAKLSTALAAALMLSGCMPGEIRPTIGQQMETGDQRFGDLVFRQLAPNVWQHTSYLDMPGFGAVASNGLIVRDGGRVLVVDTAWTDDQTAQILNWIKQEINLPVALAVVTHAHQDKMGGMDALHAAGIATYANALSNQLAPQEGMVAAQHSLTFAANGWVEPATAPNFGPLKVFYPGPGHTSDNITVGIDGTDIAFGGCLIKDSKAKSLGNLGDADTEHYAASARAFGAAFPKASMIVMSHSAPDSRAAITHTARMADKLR
# VIM-2 = VIM-2 (Escherichia coli, UniProt Q5U7L7); assay: Steady-state kinetic analysis, VIM-2; format: biochemical
# [2] = tested on: K. pneumoniae strain expressing KPC-2; format: cell-based; conditions: single agent; K. pneumoniae ATCC 4683, phenotype KPC-2
# Procedure: (§1) MIC Studies. Compounds were tested for synergy with the carbapenem antibiotic, imipenem, against BL21(DE3) E. coli expressing KPC-2. MIC values were determined with the Mueller-Hinton broth microdilution method. To test for inhibitory activity, compounds were dissolved in DMSO and dilutions were carried out using LB broth. Compounds were test at 100 µM with increasing concentrations of imipenem. […] After inoculation, the plates are incubated at 37 C for 24 hours. The MIC of the compounds were then determined visually. […] For Table 3, 16 μg/mL of compounds were tested for synergy with the carbapenem antibiotic, imipenem, against a K. pneumoniae strain expressing KPC-2.
# [3] = tested on: BL21(DE3) E. coli expressing KPC-2; assay: MIC study, synergy with imipenem, broth microdilution, E. coli; format: cell-based; conditions: imipenem alone; E. coli BL21(DE3) pET-GST-blaKPC-2; 37 C, 24 hours
# Procedure: as §1
# His-tag SHV-2, sequence (P0A9Z7 22-286 limits assumed): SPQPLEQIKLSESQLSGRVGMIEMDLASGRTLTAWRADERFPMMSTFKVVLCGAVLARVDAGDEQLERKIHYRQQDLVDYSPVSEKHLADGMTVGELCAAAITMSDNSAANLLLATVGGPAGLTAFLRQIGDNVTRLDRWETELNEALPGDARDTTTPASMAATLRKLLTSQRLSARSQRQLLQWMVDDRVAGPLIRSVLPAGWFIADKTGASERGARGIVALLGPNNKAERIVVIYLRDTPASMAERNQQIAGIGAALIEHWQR
structure (smiles),measurement,setting,value
O=P(O)(O)Cc1cccc2ccc[n+]([O-])c12 [Compound 995019],His-tag SHV-2 Ki,His-tag SHV-2,precipitation
same,His-Tag KPC-2 Ki,KPC-2 beta-lactamase,precipitation
same,NDM-1 Ki,[1],precipitation
same,VIM-2 Ki,VIM-2,precipitation
O=c1cc(CP(=O)(O)O)c2ccccc2[nH]1 [Compound 994943],Ki,VIM-2,9.12 µM
Cc1cc(Br)c2c(CP(=O)(O)O)cc(=O)oc2c1 [Compound 994942],Ki,[1],55 µM
same,Ki,VIM-2,1.8 µM
O=P(O)(O)Cc1cccc2cccnc12 [Compound 995016],Ki,VIM-2,24.3 µM
O=c1cc(CP(=O)(O)O)c2c(F)cc(F)cc2o1 [Compound 995015],Ki,VIM-2,4.7 µM
Cc1cc2oc(=O)cc(CP(=O)(O)O)c2cc1C [Compound 73043],MIC,[2],>32 µg/mL
"C[C@@H](O)[C@H]1C(=O)N2C(C(=O)O)=C(SCCN=CN)C[C@H]12 [Imipenem, imipenem, reference compound]",MIC,[3],4 µg/mL
same,MIC,[2],8 µg/mL
Cn1c(=O)cc(CP(=O)(O)O)c2ccccc21 [Compound 995018],Ki,VIM-2,15.6 µM
